# Experimental data taken from patent US11903955B2, “Methods of treating heart failure with reduced ejection fraction” (ASTRAZENECA AB, priority 2019, dated 2024).
# Where two headings read alike, the source gives them in different places.
# Legend:
# patients with HFrEF = settings: for Mild hyperkalemia (>5.5 mmol/L), HR (95% CI) / Moderate/Severe hyperkalemia (>6.0 mmol/L), HR (95% CI): dapagliflozin vs placebo; for Mild hyperkalemia (>5.5 mmol/L), No. events/patients: excluding baseline K+ > 5.5; for Moderate/Severe hyperkalemia (>6.0 mmol/L), No. events/patients: excluding baseline K+ > 6.0
# Excerpt: Hyperkalemia often limits the use of mineralocorticoid receptor antagonists (MRAs) in patients with heart failure and reduced ejection fraction (HFrEF), denying these patients a life-saving therapy.
# [1] = system: patients with chronic heart failure with reduced ejection fraction (LVEF ≤40%); settings: for Any serious adverse event (including death), % of patients / Any serious adverse event (including death), No. of patients: safety population
# Excerpt: All the patients provided written informed consent and entered a 14-day enrollment period during which the trial inclusion and exclusion criteria were checked and baseline information gathered, including findings from clinical examination and laboratory measurements. […] Investigators used an interactive voice or web response system to obtain treatment assignment. Randomization was stratified based on a diagnosis of type 2 diabetes, defined as either an established diagnosis or a HbA1c level of 6.5% or greater (≥48 mmol/mol) confirmed in a central laboratory at screening. Patients were evaluated at 14 days and 60 days after randomization, with a focus on assessment of heart failure and volume status, adverse events, and checking renal function and potassium. Further study visits took place at 4 months and at 4-month intervals thereafter. The protocol required that study drug be permanently discontinued if pregnancy or diabetic ketoacidosis occurred.
# KCCQ total symptom score was analyzed as a composite rank-based endpoint, incorporating patient vital status at 8 months along with change in score from baseline to 8 months in surviving patients, using the rank analysis of covariance method, with a corresponding win ratio used to estimate the magnitude of treatment effect.^17 The consistency of the treatment effect among 14 prespecified subgroups were assessed. The prespecified safety analyses included: serious adverse events; adverse events associated with discontinuation of study treatment; “adverse events of interest” i.e., volume depletion, renal events, major hypoglycemic events, bone fractures, diabetic ketoacidosis, amputations; Fournier's gangrene; and laboratory findings of note. […] Fisher's exact test was used to compare rates of adverse events. Analyses were performed using Stata, version 15 (College Station Tex., USA) and R version 3.5.1 (R Foundation for Statistical Computing, Vienna, Austria).
# [2] = system: patients with HFrEF without diabetes; settings: individuals without diabetes at baseline
# Excerpt: FIG. 17 describes incidence of new onset T2D (HbA1c ≥6.5%) measured at 2 consecutive study visits post-randomization or investigator-reported new T2D vs placebo patients with previously undiagnosed diabetes, i.e., HbA1c ≥6.5%
# Patients also had measurement of a glycated hemoglobin (HbA1c) level in a central laboratory at visit 1 and again at visit 2 (the randomization visit), which occurred 14 (±7) days later. For this prespecified subgroup analysis, patients were categorized as having diabetes if there was a history of diabetes or the glycated hemoglobin was at least 6.5% (≥48 mmol/mol) at both visits 1 and 2. Patients with a glycated hemoglobin level <5.7% ([…]) at both visits 1 and 2 were considered to have a normal glycated hemoglobin. For the purposes of this study, patients with a glycated hemoglobin ≥5.7% and <6.5% were considered to have pre-diabetes. Id.
smiles,measurement,setting,value
"CCOc1ccc(Cc2cc([C@@H]3O[C@H](CO)[C@@H](O)[C@H](O)[C@H]3O)ccc2Cl)cc1 [Dapagliflozin, dapagliflozin]","Mild hyperkalemia (>5.5 mmol/L), rate per 100 py",patients with HFrEF; All patients,8.1 per 100 py
same,"Moderate/Severe hyperkalemia (>6.0 mmol/L), rate per 100 py",patients with HFrEF; All patients,1.0 per 100 py
same,"Mild hyperkalemia (>5.5 mmol/L), HR (95% CI)",patients with HFrEF; All patients,0.93 (0.78-1.11)
same,"Moderate/Severe hyperkalemia (>6.0 mmol/L), HR (95% CI)",patients with HFrEF; All patients,0.64 (0.42-0.99)
same,"Mild hyperkalemia (>5.5 mmol/L), No. events/patients",patients with HFrEF; All patients,243/2292
same,"Moderate/Severe hyperkalemia (>6.0 mmol/L), No. events/patients",patients with HFrEF; All patients,34/2358
same,"Mild hyperkalemia (>5.5 mmol/L), rate per 100 py",patients with HFrEF; MRA treated at baseline,8.6 per 100 py
same,"Moderate/Severe hyperkalemia (>6.0 mmol/L), rate per 100 py",patients with HFrEF; MRA treated at baseline,0.9 per 100 py
same,"Mild hyperkalemia (>5.5 mmol/L), HR (95% CI)",patients with HFrEF; MRA treated at baseline,0.86 (0.70-1.05)
same,"Moderate/Severe hyperkalemia (>6.0 mmol/L), HR (95% CI)",patients with HFrEF; MRA treated at baseline,0.50 (0.29-0.85)
same,"Moderate/Severe hyperkalemia (>6.0 mmol/L), HR (95% CI)","patients with HFrEF; MRA treated at baseline, listed as dapagliflozin","0.50 (0.29, 0.85)"
same,"Mild hyperkalemia (>5.5 mmol/L), No. events/patients",patients with HFrEF; MRA treated at baseline,180/1632
same,"Moderate/Severe hyperkalemia (>6.0 mmol/L), No. events/patients",patients with HFrEF; MRA treated at baseline,21/1683
same,"Mild hyperkalemia (>5.5 mmol/L), rate per 100 py",patients with HFrEF; No MRA at baseline,7.1 per 100 py
same,"Moderate/Severe hyperkalemia (>6.0 mmol/L), rate per 100 py",patients with HFrEF; No MRA at baseline,1.4 per 100 py
same,"Mild hyperkalemia (>5.5 mmol/L), HR (95% CI)",patients with HFrEF; No MRA at baseline,1.20 (0.84-1.72)
same,"Moderate/Severe hyperkalemia (>6.0 mmol/L), HR (95% CI)",patients with HFrEF; No MRA at baseline,1.17 (0.52-2.62)
same,"Mild hyperkalemia (>5.5 mmol/L), No. events/patients",patients with HFrEF; No MRA at baseline,63/660
same,"Moderate/Severe hyperkalemia (>6.0 mmol/L), No. events/patients",patients with HFrEF; No MRA at baseline,13/675
same,"Mild hyperkalemia, patients (%)",patients with HFrEF; patients treated with an MRA,180 (11%) patients (%)
same,"moderate/severe hyperkalemia, patients (%)",patients with HFrEF; patients treated with an MRA,21 (1.2%) patients (%)
same,"Any serious adverse event (including death), % of patients",[1]; No T2DM (N = 1295),(34.6) %
same,"Any serious adverse event (including death), No. of patients",[1]; No T2DM (N = 1295),448 patients
same,"Any serious adverse event (including death), % of patients",[1]; T2DM (N = 1073),(41.7) %
same,"Any serious adverse event (including death), No. of patients",[1]; T2DM (N = 1073),447 patients
same,"Adverse events of interest: Fournier gangrene, % of patients","[1]; human, in vivo",(0) %
same,"Adverse events of interest: Fournier gangrene, No. of patients","[1]; human, in vivo",0 patients
same,"Adverse events of interest: Fracture, % of patients","[1]; human, in vivo",(2.1) %
same,"Amputation, No. (%)","[1]; human, in vivo",13 (0.5) No. (%)
same,"Diabetic Ketoacidosis, No. (%)","[1]; human, in vivo",3 (0.1) No. (%)
same,"Discontinuation of study drug due to adverse event, No. (%)","[1]; human, in vivo",111 (4.7) No. (%)
same,"Fournier gangrene, No. (%)","[1]; human, in vivo",0 (0) No. (%)
same,"Fracture, No. (%)","[1]; human, in vivo",49 (2.1) No. (%)
same,"Major hypoglycemia, No. (%)","[1]; human, in vivo",4 (0.2) No. (%)
same,"Serious adverse events related to volume depletion, patients (%)","[1]; human, in vivo",29 dapagliflozin treated patients (1.2%) patients (%)
same,"Serious renal adverse events, patients (%)","[1]; human, in vivo",38 dapagliflozin treated patients (1.6%) patients (%)
same,"Fournier gangrene, No. (%)",[1]; in vivo,No case
same,"amputation, cases",[1]; in vivo,twelve
same,"amputation, patients",[1]; in vivo,one
same,"Any serious adverse event (including death), No. (%)",[1]; safety population n = 2368,895 (37.8) No. (%)
same,"new-onset diabetes, HR",[2]; dapagliflozin vs placebo (Cox),0.68
same,reduction of new-onset diabetes,[2]; vs placebo,32%
